In the supplement of paper PMC10307832:

What was measured:
Assay in all cases: relative viability (nuclei count vs DMSO), 5 days (fraction); higher = more cells survive
MK-2206 + Lapatinib = compound: NC1(c2ccc(-c3nc4ccn5c(=O)[nH]nc5c4cc3-c3ccccc3)cc2)CCC1 [MK-2206] + CS(=O)(=O)CCNCc1ccc(-c2ccc3ncnc(Nc4ccc(OCc5cccc(F)c5)c(Cl)c4)c3c2)o1 [Lapatinib] (partner 2 µM)
In short: (§1)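 Relative viability divides the nuclei count in treated wells by that in vehicle wells. Lung cancer cell lines were seeded in 1536-well plates, dosed by pin tool the next day, and fixed and stained after 5 days in one step with final 0.05% Triton X-100, 1% formaldehyde and 1 ug/ml Hoechst. Dosing was a single drug or a fixed anchor-drug dose plus five library-drug doses (not always all listed) in √10 steps, and values are medians of duplicate plates imaged at 4×.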

MK-2206 + Vorinostat = compound: NC1(c2ccc(-c3nc4ccn5c(=O)[nH]nc5c4cc3-c3ccccc3)cc2)CCC1 [MK-2206] + O=C(CCCCCCC(=O)Nc1ccccc1)NO [Vorinostat] (partner 1 µM)
In short: as §1

MK-2206 + Foretinib = compound: NC1(c2ccc(-c3nc4ccn5c(=O)[nH]nc5c4cc3-c3ccccc3)cc2)CCC1 [MK-2206] + COc1cc2c(Oc3ccc(NC(=O)C4(C(=O)Nc5ccc(F)cc5)CC4)cc3F)ccnc2cc1OCCCN1CCOCC1 [Foretinib] (partner 0.25 µM)
In short: as §1

MK-2206 + Olaparib = compound: NC1(c2ccc(-c3nc4ccn5c(=O)[nH]nc5c4cc3-c3ccccc3)cc2)CCC1 [MK-2206] + O=C(c1cc(Cc2n[nH]c(=O)c3ccccc23)ccc1F)N1CCN(C(=O)C2CC2)CC1 [Olaparib] (partner 8 µM)
In short: as §1

Pictilisib + Luminespib = compound: CS(=O)(=O)N1CCN(Cc2cc3nc(-c4cccc5[nH]ncc45)nc(N4CCOCC4)c3s2)CC1 [Pictilisib] + CCNC(=O)c1noc(-c2cc(C(C)C)c(O)cc2O)c1-c1ccc(CN2CCOCC2)cc1 [Luminespib] (partner 0.01 µM)
In short: as §1

Row | Cell Line | relative viability (MK-2206 + Lapatinib; first compound 0.01 µM) | relative viability (MK-2206 + Lapatinib; first compound 0.03162 µM) | relative viability (MK-2206 + Lapatinib; first compound 0.3162 µM) | relative viability (MK-2206 + Lapatinib; first compound 1 µM) | relative viability (MK-2206 + Vorinostat; first compound 0.01 µM) | relative viability (MK-2206 + Vorinostat; first compound 0.03162 µM) | relative viability (MK-2206 + Vorinostat; first compound 0.3162 µM) | relative viability (MK-2206 + Vorinostat; first compound 1 µM) | relative viability (MK-2206 + Foretinib; first compound 0.01 µM) | relative viability (MK-2206 + Foretinib; first compound 0.03162 µM) | relative viability (MK-2206 + Foretinib; first compound 0.3162 µM) | relative viability (MK-2206 + Foretinib; first compound 1 µM) | relative viability (MK-2206 + Olaparib; first compound 0.01 µM) | relative viability (MK-2206 + Olaparib; first compound 0.03162 µM) | relative viability (MK-2206 + Olaparib; first compound 0.3162 µM) | relative viability (MK-2206 + Olaparib; first compound 1 µM) | relative viability (Pictilisib + Luminespib; first compound 0.02 µM) | relative viability (Pictilisib + Luminespib; first compound 0.06325 µM) | relative viability (Pictilisib + Luminespib; first compound 0.6325 µM) | relative viability (Pictilisib + Luminespib; first compound 2 µM)
1 | NCI-H1666 | 0.633 | 0.577 | 0.354 | 0.386 | 1.03 | 1.07 | 1.04 | 0.916 | 1 | 0.985 | 1.02 | 0.91 | 0.702 | 0.794 | 0.802 | 0.774 | 1.02 | 1.07 | 0.937 | 0.651
2 | SK-MES-1 | 0.461 | 0.452 | 0.429 | 0.38 | 1.02 | 1.15 | 1.02 | 1.05 | 0.893 | 1.06 | 0.886 | 0.84 | 0.635 | 0.727 | 0.692 | 0.482 | 0.748 | 0.702 | 0.279 | 0.219
3 | NCI-H2023 | 0.827 | 0.818 | 0.708 | 0.492 | 0.54 | 0.428 | 0.431 | 0.391 | 0.943 | 0.972 | 0.922 | 0.722 | 0.463 | 0.506 | 0.436 | 0.44 | 0.936 | 0.753 | 0.286 | 0.103
4 | COR-L 105 | 0.382 | 0.42 | 0.317 | 0.335 | 0.822 | 0.676 | 0.769 | 0.796 | 1.08 | 0.856 | 0.984 | 1.06 | 0.774 | 0.7 | 0.57 | 0.749 | 0.987 | 0.803 | 0.715 | 0.466
5 | NCI-H838 | 1.04 | 1.18 | 1.01 | 0.675 | 0.705 | 0.714 | 0.647 | 0.654 | 0.956 | 1.08 | 0.962 | 0.908 | 0.768 | 0.857 | 0.767 | 0.685 | 0.332 | 0.262 | 0.241 | 0.258
6 | SW 1573 | 0.88 | 1.15 | 0.987 | 0.982 | 0.665 | 0.94 | 0.449 | 0.6 | 0.833 | 1.28 | 0.755 | 0.956 | 0.5 | 0.466 | 0.396 | 0.393 | 0.185 | 0.196 | 0.187 | 0.189
